Data published in ChEMBL document CHEMBL1201862, “PubChem BioAssay data set” (2004).
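Results reflect a 48-hour exposure of cells in 96-well plates to compound at five concentrations. The concentration for 50% growth inhibition is given as GI50.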 Activity calls are given as the source filed them. Cut-off read from the data, not from the text of the source: active = GI50 up to about 1.1 µM and inactive = higher.

Tests used:
Assay in all cases: NCI-60 cell line screen, 48 h
786-0 = tested on: 786-0
DLD-1 = tested on: DLD-1
HCT-116 = tested on: HCT-116
HL-60 = tested on: HL-60
HOP-92 = tested on: HOP-92
K562 = tested on: K562
KM-20L2 = tested on: KM-20L2
KM12 = tested on: KM12
LXFL 529 = tested on: LXFL 529
MOLT-4 = tested on: MOLT-4
Malme-3M = tested on: Malme-3M
OVCAR-8 = tested on: OVCAR-8
SK-MEL-2 = tested on: SK-MEL-2
SK-MEL-5 = tested on: SK-MEL-5
SK-OV-3 = tested on: SK-OV-3
UACC-257 = tested on: UACC-257
UACC-62 = tested on: UACC-62
UO-31 = tested on: UO-31
BT-549 = tested on: BT-549
PC-3 = tested on: PC-3

| SMILES | GI50 (786-0) | GI50 (DLD-1) | GI50 (HCT-116) | GI50 (HL-60) | GI50 (HOP-92) | GI50 (K562) | GI50 (KM-20L2) | GI50 (KM12) | GI50 (LXFL 529) | GI50 (MOLT-4) | GI50 (Malme-3M) | GI50 (OVCAR-8) | GI50 (SK-MEL-2) | GI50 (SK-MEL-5) | GI50 (SK-OV-3) | GI50 (UACC-257) | GI50 (UACC-62) | GI50 (UO-31) | GI50 (BT-549) | GI50 (PC-3) |
| --- | --- | --- | --- | --- | --- | --- | --- | --- | --- | --- | --- | --- | --- | --- | --- | --- | --- | --- | --- | --- |
| O=CC1CCCc2ccccc21 (stereo not drawn) | > 100 µM (inactive) | > 43.1 µM (inactive) | > 50.1 µM (inactive) | > 63 µM (inactive) | > 100 µM (inactive) | > 60 µM (inactive) | > 100 µM (inactive) | > 100 µM (inactive) | > 100 µM (inactive) | > 100 µM (inactive) | > 100 µM (inactive) | > 100 µM (inactive) | > 100 µM (inactive) | > 100 µM (inactive) | > 100 µM (inactive) | > 74.3 µM (inactive) | > 100 µM (inactive) | > 100 µM (inactive) | – | – |
| COc1ccc(/C=C/C(=N\NC(=O)c2ccccc2)c2sc(Nc3ccc([N+](=O)[O-])cc3)nc2C)cc1OC | 10.5 µM (inactive) | 6.27 µM (inactive) | 7.31 µM (inactive) | 2.62 µM (inactive) | < 0.01 µM (active) | 3.18 µM (inactive) | 8.67 µM (inactive) | 7.73 µM (inactive) | 7.67 µM (inactive) | 2.77 µM (inactive) | 19.2 µM (inactive) | 9.57 µM (inactive) | 15.9 µM (inactive) | – | 45.8 µM (inactive) | 12.6 µM (inactive) | 2.75 µM (inactive) | 15.6 µM (inactive) | – | – |
| CCCCCCCCCCCC(=O)OC[C@H](C[As](=O)(O)O)OC(=O)CCCCCCCCCCC | 13.2 µM (inactive) | 13.2 µM (inactive) | 8.89 µM (inactive) | 3.05 µM (inactive) | 1.75 µM (inactive) | 4.89 µM (inactive) | 6.04 µM (inactive) | 8.11 µM (inactive) | 3.82 µM (inactive) | 6.14 µM (inactive) | 2.3 µM (inactive) | 13 µM (inactive) | 2.68 µM (inactive) | 1.99 µM (inactive) | 14.7 µM (inactive) | 11 µM (inactive) | 2.3 µM (inactive) | 16 µM (inactive) | 3.84 µM (inactive) | 2.9 µM (inactive) |
| COc1ccc(C2C(Cl)C(=O)N2NC(=O)c2ccc(N)cc2)cc1 (stereo not drawn) | > 100 µM (inactive) | > 100 µM (inactive) | > 100 µM (inactive) | > 100 µM (inactive) | > 100 µM (inactive) | > 100 µM (inactive) | > 100 µM (inactive) | > 100 µM (inactive) | > 100 µM (inactive) | > 100 µM (inactive) | > 100 µM (inactive) | > 100 µM (inactive) | > 100 µM (inactive) | > 100 µM (inactive) | > 100 µM (inactive) | > 100 µM (inactive) | > 100 µM (inactive) | > 100 µM (inactive) | – | – |
| COc1cc(OC)c(C#N)c(OC)c1C | > 100 µM (inactive) | > 100 µM (inactive) | – | > 100 µM (inactive) | > 100 µM (inactive) | > 100 µM (inactive) | > 100 µM (inactive) | > 100 µM (inactive) | > 100 µM (inactive) | > 100 µM (inactive) | > 100 µM (inactive) | > 100 µM (inactive) | > 100 µM (inactive) | > 100 µM (inactive) | > 100 µM (inactive) | > 100 µM (inactive) | > 100 µM (inactive) | > 100 µM (inactive) | – | – |
| COc1ccc(C2Oc3cc(OC)c(O)cc3[C@@H]2C)cc1 (stereo partly drawn) | 17.1 µM (inactive) | 19.9 µM (inactive) | 12.8 µM (inactive) | 18.2 µM (inactive) | 15.3 µM (inactive) | 31.5 µM (inactive) | 49.5 µM (inactive) | 45 µM (inactive) | 17.5 µM (inactive) | 14.9 µM (inactive) | 78 µM (inactive) | 23.2 µM (inactive) | 43 µM (inactive) | 31.1 µM (inactive) | > 100 µM (inactive) | 44.6 µM (inactive) | > 10 µM (inactive) | 13.8 µM (inactive) | – | – |
| Cn1c(=O)n(CC2CS2)c2ccccc21 (stereo not drawn) | – | > 100 µM (inactive) | > 100 µM (inactive) | 71.6 µM (inactive) | 68.4 µM (inactive) | > 100 µM (inactive) | > 100 µM (inactive) | > 100 µM (inactive) | > 100 µM (inactive) | 88.1 µM (inactive) | > 100 µM (inactive) | > 10 µM (inactive) | > 100 µM (inactive) | – | > 100 µM (inactive) | – | > 100 µM (inactive) | > 100 µM (inactive) | – | – |
